How the values were obtained:
[1] = system: BV173; experiment: Cytotoxicity assay (cell counting); assay type: cell-based; details: Homo sapiens, BV-173; BV173, CML; 72 hours incubation
Method: (§1) Cells were plated in 24-well plates. After cells were allowed to recover for 24 hours, NVX-412 was added in fresh growth medium. The maximal DMSO concentration reached in all experiments was below 0.01%. Respective control experiments at the highest DMSO concentration were performed in order to rule out DMSO-induced effects. After 72 hours incubation the proportion of viable cells was determined by cell counting with a Z1 Coulter Particle Counter (Beckman Coulter, Vienna, AUT), a ViCell XR (Beckman Coulter, Vienna, AUT) or a CASY® Cell Counter (Schärfe, Reutlingen, Germany). Cytotoxicity was expressed as IC50 values that were derived from the corresponding dose–response curves.

[2] = system: CL-1; experiment: Cytotoxicity assay (cell counting); assay type: cell-based; details: Canis lupus familiaris; CL-1, canine T-cell lymphoma; 72 hours incubation
Method: as §1

[3] = system: CLBL-1; experiment: Cytotoxicity assay (cell counting); assay type: cell-based; details: Canis lupus familiaris; CLBL-1, canine B-cell lymphoma; 72 hours incubation
Method: as §1

[4] = system: GL-1; experiment: Cytotoxicity assay (cell counting); assay type: cell-based; details: Canis lupus familiaris; GL-1, canine B-cell leukemia; 72 hours incubation
Method: as §1

[5] = system: HeLa; experiment: Cytotoxicity assay (cell counting); assay type: cell-based; details: Homo sapiens, cervix carcinoma, 72 hours incubation
Method: as §1

[6] = system: Hs578T; experiment: Cytotoxicity assay (cell counting); assay type: cell-based; details: Homo sapiens, Hs-578T, breast carcinoma, 72 hours incubation
Method: as §1

[7] = system: K562; experiment: Cytotoxicity assay (cell counting); assay type: cell-based; details: Homo sapiens; K562, CML; 72 hours incubation
Method: as §1

[8] = system: KG-1a; experiment: Cytotoxicity assay (cell counting); assay type: cell-based; details: Homo sapiens, AML, 72 hours incubation
Method: as §1

[9] = system: KG-1; experiment: Cytotoxicity assay (cell counting); assay type: cell-based; details: Homo sapiens; KG-1, AML; 72 hours incubation
Method: as §1

[10] = system: MCF-7; experiment: Cytotoxicity assay (cell counting); assay type: cell-based; details: Homo sapiens, MCF7; MCF-7, breast adenocarcinoma; 72 hours incubation
Method: as §1

[11] = system: NALM-1; experiment: Cytotoxicity assay (cell counting); assay type: cell-based; details: Homo sapiens; NALM-1, CML; 72 hours incubation
Method: as §1

[12] = system: OSW; experiment: Cytotoxicity assay (cell counting); assay type: cell-based; details: Canis lupus familiaris, canine T-cell lymphoma, 72 hours incubation
Method: as §1

[13] = system: Raji; experiment: Cytotoxicity assay (cell counting); assay type: cell-based; details: Homo sapiens, Burkitt lymphoma, 72 hours incubation
Method: as §1

[14] = system: Ramos; experiment: Cytotoxicity assay (cell counting); assay type: cell-based; details: Homo sapiens, Burkitt Lymphoma, 72 hours incubation
Method: as §1

[15] = system: SU-DHL-6; experiment: Cytotoxicity assay (cell counting); assay type: cell-based; details: Homo sapiens; SU-DHL-6, B-cell lymphoma; 72 hours incubation
Method: as §1

[16] = system: Normal human endothelial cells (HUVEC); experiment: Cytotoxicity assay, normal cells; assay type: cell-based
Method: as §1

[17] = system: human white preadipocytes (hWP); experiment: Cytotoxicity assay, normal cells; assay type: cell-based
Method: as §1

[18] = system: HCT116 cells; experiment: DNA replication rate (BrdU incorporation ELISA); assay type: cell-based, human
Method: (§2) HeLa and HCT116 cells were plated in black 96-well plates. After cells were allowed to recover for 24 hours NVX-412 or CPT was added in fresh growth medium. After 24 hours of incubation a chemiluminescent BrdU Incorporation ELISA (Roche Applied Science, Penzberg, Germany) was performed with half of the plates according to the manufacturer’s protocol. Cells in the remaining plates were allowed to recover for 24 hours in normal growth medium before DNA replication was measured (wash-out experiment). To check whether a possible decline in DNA replication rate is not simply due to lower cell numbers because of cell death induction, the proportion of viable cells was determined in parallel by a MTT-based cytotoxicity assay according to the manufacturer’s protocol (EZ4U, Biomedica, Vienna, Austria). Colorimetric (at 492 and 620 nm) and chemiluminescent measurements were performed using a FLUOstar OPTIMA (BMG Labtech, Ortenberg, Germany).

[19] = system: HeLa cells; experiment: DNA replication rate (BrdU incorporation ELISA); assay type: cell-based, human
Method: as §2

[20] = system: γH2AX (Ser139); experiment: Immunofluorescence staining and quantification of γH2AX in HeLa cells; assay type: cell-based, human
Method: HCT116 and HeLa cells were seeded on glass cover slips in 6-well plates. 24 hours after plating, HCT116 cells were incubated with 0.15, 0.5 and 1 µM NVX-412 and 1 µM CPT for 24 hours for staining of p-p53. For investigating γH2AX, HeLa cells were incubated with 0.21, 0.5 and 1 µM NVX-412 and 1 µM CPT for 3 or 24 hours. Additionally, cells were allowed to recover for 24 hours in normal growth medium after 24 hours of incubation with NVX-412 or CPT (wash-out experiment). After the respective treatments, cells were washed and fixed with 4% methanol-free formaldehyde (Polysciences Inc. Warrington, PA, USA) for 15 minutes at room temperature and then permeabilized with 0.2% Triton X-100/PBS for 2 minutes at room temperature. After blocking with goat serum (5%) in 1% BSA/0.3% Triton X-100/PBS, the respective primary antibody was added and cells were incubated at 4°C overnight. Antibodies used were: mouse p-p53 (Ser15) (Cell Signaling Technology, Danvers, MA, USA) at 1∶100 dilution and mouse p-H2AX (Ser139) (Millipore, Billerica, MA, USA) at 1∶1000 dilution in 1% BSA/PBS, respectively. Cells were then washed 3 times for 10 minutes with 0.25% BSA/0.1% Triton X-100/PBS and incubated with the Alexa Fluor 488 conjugated secondary anti-mouse antibody (1∶1000 in 0.25% BSA/0.1% Triton X-100/PBS) for 1 hour at room temperature in the dark. Cells were washed 3 times for 10 minutes with 0.05% Tween-20/PBS containing Hoechst 33342 (Sigma Aldrich, Vienna, AUT) and mounted with mounting medium (Fluoprep, bioMérieux, Marcy l'Etoile, FRA). Fluorescence was immediately recorded on a Zeiss LSM700 laser scanning microscope.
The common procedure for assessing γH2AX induction is to count γH2AX foci. Since with NVX-412 and the positive control CPT γH2AX activation was that strong, no distinguishable and countable foci were seen. Therefore, the average γH2AX fluorescence intensity per nucleus was determined. To this end, γH2AX intensities within a certain field were measured using Quantity One –4.6.9 (Basic freeware version, Bio-Rad Laboratories, Hercules, CA, USA) and were divided by the number of nuclei in this field.

O=C(NNc1nc2cc(F)ccc2n2cccc12)c1cnccn1 [NVX-412, Pyrazine-2-carboxylic acid N’- (7-fluoro-pyrrolo[1,2-α]quinoxalin-4-yl)-hydrazide-oxalic acid co-crystal]
IC50 [1]: 210 nM | IC50 [2]: 170 nM | IC50 [3]: 40 nM | IC50 [4]: 105 nM | IC50 [5]: 210 nM | IC50 [6]: 135 nM | IC50 [7]: 540 nM | IC50 [8]: 145 nM | IC50 [9]: 190 nM | IC50 [10]: 150 nM | IC50 [11]: 330 nM | IC50 [12]: 103 nM | IC50 [13]: 60 nM | IC50 [14]: 170 nM | IC50 [15]: 320 nM | IC50 [16]: 2000 nM | IC50 [17]: 1000 nM | DNA replication rate (BrdU incorporation) ([18]; HCT116, 24 hours treatment): reduction of DNA replication | DNA replication rate after recovery (wash-out) ([18]; HCT116, 24 hours treatment then 24 hours in normal growth medium): the rate increased to normal levels | DNA replication rate (BrdU incorporation) ([19]; 24 hours treatment): reduction of DNA replication | DNA replication rate after recovery (wash-out) ([19]; 24 hours treatment then 24 hours in normal growth medium): the rate increased to normal levels | γH2AX induction ([20]; 3 hours): Only a slight induction of γH2AX | γH2AX levels after recovery (wash-out) ([20]; 24 hours treatment then 24 hours without drug): decreased to nearly basal levels | γH2AX levels ([20]; 24 hours, 0.21, 0.5 and 1 µM): elevated after a 24 hour treatment in a dose-dependent manner | γH2AX staining increase (average fluorescence intensity per nucleus) ([20]; 24 hours, highest concentration tested, p-value <0.0001): up to 15 fold
